Consider ten compounds from patent US12528814B2, “Bifunctional degraders of interleukin-1 receptor-associated kinases and therapeutic use thereof” (NURIX THERAPEUTICS, INC., priority 2020, dated 2026).

pIC50: −log10 of the molar value. Like-named read-outs stand apart in the source and are kept apart here.

Experiment [1] deals with T1, IRAK4 (Homo sapiens (Human), UniProt Q9NWZ3). Description: IRAK4 Degradation HiBiT Assay. Conditions: HiBiT-tagged Jurkat cells, 4 hrs; for Dmax: Jurkat; for DC50: read-out: Cellular IRAK4 HiBiT: DC50.
Target sequence in this assay (Q9NWZ3 whole entry): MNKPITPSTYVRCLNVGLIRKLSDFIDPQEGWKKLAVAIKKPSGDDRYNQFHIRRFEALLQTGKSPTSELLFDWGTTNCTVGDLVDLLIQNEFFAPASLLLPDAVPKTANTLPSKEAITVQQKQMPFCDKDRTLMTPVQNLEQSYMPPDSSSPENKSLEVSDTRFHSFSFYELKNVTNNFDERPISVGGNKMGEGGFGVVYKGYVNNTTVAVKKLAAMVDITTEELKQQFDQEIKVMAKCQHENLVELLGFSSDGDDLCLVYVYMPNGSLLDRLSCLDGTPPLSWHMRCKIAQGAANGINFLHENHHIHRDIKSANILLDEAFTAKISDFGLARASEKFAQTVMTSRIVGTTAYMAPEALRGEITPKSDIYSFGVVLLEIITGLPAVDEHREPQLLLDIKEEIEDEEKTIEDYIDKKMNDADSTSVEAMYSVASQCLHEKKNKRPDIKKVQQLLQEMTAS
Experiment [2] concerns the target T1, IRAK4. The experiment in a line: IRAK4 Biochemical HTRF Kinase Assay. Conditions: read-out: IRAK4 HTRF biochemical: IC50. On the procedure: IRAK4 Biochemical HTRF Kinase Assay
The binding capacities of certain bifunctional compounds of Formula (I) were determined using the CisBio HTRF KinEASE STK S1 Kit (#62ST1PEB, contains 5× Kinase buffer, 1× Detection Buffer, anti-phospho-serine/threonine-cryptate, Streptavidin-XL665, and STK-S1), which measures the phosphorylation of a biotinylated peptide substrate by IRAK4, according to the manufacturer's protocol. […] 2 μl of a reaction solution containing 5 μM STK-S1, 10 mM ATP, and 10 mM MgCl2 were added to each well to a final volume of 10 μl. Assay controls include wells containing kinase with no compound (DMSO only) and wells containing no kinase and no compound (DMSO only). The reactions were allowed to proceed at ambient temperature for 90 minutes. […] The plates were incubated for 60 minutes at ambient temperature and then read on an Envision Multilabel Reader (PerkinElmer). […] For IC50 determination, the compounds were tested at sixteen concentrations in duplicate and curve-fitting was performed by non-linear regression analysis using GraphPad Priam.
Target sequence in this assay (Q9NWZ3 whole entry, species assumed): as the sequence (Q9NWZ3 whole entry) above

[3] abbreviates: read-out: Cellular IRAK4 HiBiT: Dmax, Table 4.
Setting [4] is: read-out: Cellular IRAK4 HiBiT: Dmax, Table 5, multiple runs.

Take `CC(C)Nc1cc(-c2ccc3cc(C#N)cnn23)ncc1-c1nnc(N2CCN(Cc3ccc4c(c3)C(=O)N(C3CCC(=O)NC3=O)C4=O)CC2)s1` (stereo not drawn) [Example 20, 7-(5-(5-(4-((2-(2,6-dioxopiperidin-3-yl)-1,3-dioxoisoindolin-5-yl)methyl)piperazin-1-yl)-1,3,4-thiadiazol-2-yl)-4-(isopropylamino)pyridin-2-yl)pyrrolo[1,2-b]pyridazine-3-carbonitrile]: the Dmax on IRAK4 [1] (setting [3]) and on IRAK4 [1] (setting [4]) was 29% in each case. Also, the 50% degradation concentration (DC50) at IRAK4 [1] (Table 4) amounted to 654 nM; on IRAK4 [1] (Table 5, multiple runs), 660 nM. The negative logarithm of the IC50 (pIC50) on IRAK4 [2] (Table 4) is 8.70; at IRAK4 [2] (Table 5, multiple runs), 8.70.
Take `CC(C)Nc1cc(-c2ccc3cc(C#N)cnn23)ncc1-c1nnc(N2CCN(C(=O)C3CCN(CC4CCN(c5ccc6c(=O)n(C7CCC(=O)NC7=O)ccc6c5)CC4)CC3)CC2)s1` (stereo not drawn) [Example 21, 7-(5-(5-(4-(1-((1-(2-(2,6-dioxopiperidin-3-yl)-1-oxo-1,2-dihydroisoquinolin-6-yl)piperidin-4-yl)methyl)piperidine-4-carbonyl)piperazin-1-yl)-1,3,4-thiadiazol-2-yl)-4-(isopropylamino)pyridin-2-yl)pyrrolo[1,2-b]pyridazine-3-carbonitrile]: the Dmax at IRAK4 [1] (setting [3]) was determined as 103%; at IRAK4 [1] (setting [4]), 101%. Also, the DC50 on IRAK4 [1] (Table 4) came out at 251 nM; on IRAK4 [1] (Table 5, multiple runs), 251 nM. Also, the pIC50 was 9.30 on IRAK4 [2] (Table 4) and 9.30 at IRAK4 [2] (Table 5, multiple runs).
With `CC(C)Nc1cc(-c2ccc3cc(C#N)cnn23)ncc1-c1nnc(N2CCC(NCC3CCN(c4ccc5c(c4)C(=O)N(C4CCC(=O)NC4=O)C5=O)CC3)CC2)s1` (stereo not drawn) [Example 22, 7-[5-(5-{4-[({1-[2-(2,6-dioxopiperidin-3-yl)-1,3-dioxo-2,3-dihydro-1H-isoindol-5-yl]piperidin-4-yl}methyl)amino]piperidin-1-yl}-1,3,4-thiadiazol-2-yl)-4-[(propan-2-yl)amino]pyridin-2-yl]pyrrolo[1,2-b]pyridazine-3-carbonitrile], the Dmax at IRAK4 [1] (setting [3]) worked out at 96%; on IRAK4 [1] (setting [4]), 99%. Further, the half-maximal degradation concentration (DC50) on IRAK4 [1] (Table 4) stood at 232 nM; at IRAK4 [1] (Table 5, multiple runs) it was 231 nM. Further, the negative-log IC50 (pIC50) was 9.10 on IRAK4 [2] (Table 4) and 9.10 at IRAK4 [2] (Table 5, multiple runs).
Take `CC(C)Nc1cc(-c2ccc3cc(C#N)cnn23)ncc1-c1nnc(N2CCN(C(=O)C3CCN(c4ccc5c(c4)C(=O)N(C4CCC(=O)NC4=O)C5=O)CC3)CC2)s1` (stereo not drawn) [Example 23, 7-{5-[5-(4-{1-[2-(2,6-dioxopiperidin-3-yl)-1,3-dioxo-2,3-dihydro-1H-isoindol-5-yl]piperidine-4-carbonyl}piperazin-1-yl)-1,3,4-thiadiazol-2-yl]-4-[(propan-2-yl)amino]pyridin-2-yl}pyrrolo[1,2-b]pyridazine-3-carbonitrile]: the Dmax at IRAK4 [1] (setting [3]) was 97%; at IRAK4 [1] (setting [4]) it was 108%. Also, the DC50 is 184 nM at IRAK4 [1] (Table 4) and 57 nM at IRAK4 [1] (Table 5, multiple runs). Also, the negative-log IC50 (pIC50) at IRAK4 [2] (Table 4) is 8.82; on IRAK4 [2] (Table 5, multiple runs) it was 8.82.
As for `CC(C)Nc1cc(-c2ccc3cc(C#N)cnn23)ncc1-c1nnc(N2CCC(NC(=O)C3CCN(c4ccc5c(c4)C(=O)N(C4CCC(=O)NC4=O)C5=O)CC3)CC2)s1` (stereo not drawn) [Example 25, N-(1-(5-(6-(3-cyanopyrrolo[1,2-b]pyridazin-7-yl)-4-(isopropylamino)pyridin-3-yl)-1,3,4-thiadiazol-2-yl)piperidin-4-yl)-1-(2-(2,6-dioxopiperidin-3-yl)-1,3-dioxoisoindolin-5-yl)piperidine-4-carboxamide], the values for the Dmax at IRAK4 [1] (setting [3]) and on IRAK4 [1] (setting [4]) were 69% and 77%, respectively. The DC50 at IRAK4 [1] (Table 4) was found to be 188 nM; on IRAK4 [1] (Table 5, multiple runs), 160 nM. Further, the pIC50 on IRAK4 [2] (Table 4) is 8.11; at IRAK4 [2] (Table 5, multiple runs) it was 8.11.
As to `CC(C)Nc1cc(-c2ccc3cc(C#N)cnn23)ncc1-c1nnc(N2CCN(CCCCc3ccc4c(c3)CN(C3CCC(=O)NC3=O)C4=O)CC2)s1` (stereo not drawn) [Example 26, 7-(5-(5-(4-(4-(2-(2,6-dioxopiperidin-3-yl)-1-oxoisoindolin-5-yl)butyl)piperazin-1-yl)-1,3,4-thiadiazol-2-yl)-4-(isopropylamino)pyridin-2-yl)pyrrolo[1,2-b]pyridazine-3-carbonitrile], the Dmax on IRAK4 [1] (setting [3]) and at IRAK4 [1] (setting [4]) was 87% each time. Besides, the 50% degradation concentration (DC50) on IRAK4 [1] (Table 4) came to 94.2 nM; at IRAK4 [1] (Table 5, multiple runs), 94.1 nM. Besides, the negative logarithm of the IC50 (pIC50) is 9.05 on IRAK4 [2] (Table 4) and 9.05 at IRAK4 [2] (Table 5, multiple runs).
Regarding `CC(C)Nc1cc(-c2ccc3cc(C#N)cnn23)ncc1-c1nnc(N2CCN(CCCc3ccc4c(c3)CN(C3CCC(=O)NC3=O)C4=O)CC2)s1` (stereo not drawn) [Example 27, 7-(5-(5-(4-(3-(2-(2,6-dioxopiperidin-3-yl)-1-oxoisoindolin-5-yl)propyl)piperazin-1-yl)-1,3,4-thiadiazol-2-yl)-4-(isopropylamino)pyridin-2-yl)pyrrolo[1,2-b]pyridazine-3-carbonitrile], the Dmax at IRAK4 [1] (setting [3]) and on IRAK4 [1] (setting [4]) was 57% throughout. In addition, the DC50 was determined as 70.6 nM on IRAK4 [1] (Table 4) and 70.7 nM at IRAK4 [1] (Table 5, multiple runs). For the same compound, the pIC50 on IRAK4 [2] (Table 4) is 9.52; on IRAK4 [2] (Table 5, multiple runs), 8.92.
For the compound `CC(C)Nc1cc(-c2ccc3cc(C#N)cnn23)ncc1-c1nnc(N2CCN(CCCCc3cccc4c3CN(C3CCC(=O)NC3=O)C4=O)CC2)s1` (stereo not drawn) [Example 28, 7-(5-(5-(4-(4-(2-(2,6-dioxopiperidin-3-yl)-1-oxoisoindolin-4-yl)butyl)piperazin-1-yl)-1,3,4-thiadiazol-2-yl)-4-(isopropylamino)pyridin-2-yl)pyrrolo[1,2-b]pyridazine-3-carbonitrile], the Dmax at IRAK4 [1] (setting [3]) and at IRAK4 [1] (setting [4]) was 70% each time. Further, the DC50 turned out to be 53 nM at IRAK4 [1] (Table 4) and 53.1 nM at IRAK4 [1] (Table 5, multiple runs). In addition, the pIC50 at IRAK4 [2] (Table 4) was 9.40; on IRAK4 [2] (Table 5, multiple runs), 9.30.
`CC(C)Nc1cc(-c2ccc3cc(C#N)cnn23)ncc1-c1nnc(N2CCN(CCCc3cccc4c3CN(C3CCC(=O)NC3=O)C4=O)CC2)s1` (stereo not drawn) [Example 29, 7-(5-(5-(4-(3-(2-(2,6-dioxopiperidin-3-yl)-1-oxoisoindolin-4-yl)propyl)piperazin-1-yl)-1,3,4-thiadiazol-2-yl)-4-(isopropylamino)pyridin-2-yl)pyrrolo[1,2-b]pyridazine-3-carbonitrile]: the Dmax at IRAK4 [1] (setting [3]) and at IRAK4 [1] (setting [4]) was 90% in each case. In addition, the DC50 at IRAK4 [1] (Table 4) is 135 nM; at IRAK4 [1] (Table 5, multiple runs), 136 nM. Further, the pIC50 on IRAK4 [2] (Table 4) is 9.10; on IRAK4 [2] (Table 5, multiple runs), 8.96.
Turning to `CC(C)Nc1cc(-c2ccc3cc(C#N)cnn23)ncc1-c1nnc(N2CCC(NC(=O)C3CCN(Cc4ccc5c(c4)C(=O)N(C4CCC(=O)NC4=O)C5=O)CC3)CC2)s1` (stereo not drawn) [Example 30, N-(1-(5-(6-(3-cyanopyrrolo[1,2-b]pyridazin-7-yl)-4-(isopropylamino)pyridin-3-yl)-1,3,4-thiadiazol-2-yl)piperidin-4-yl)-1-((2-(2,6-dioxopiperidin-3-yl)-1,3-dioxoisoindolin-5-yl)methyl)piperidine-4-carboxamide], the Dmax at IRAK4 [1] (setting [3]) and at IRAK4 [1] (setting [4]) was 95% throughout. In addition, the 50% degradation concentration (DC50) on IRAK4 [1] (Table 4) came out at 73.4 nM; at IRAK4 [1] (Table 5, multiple runs), 73.5 nM. In addition, the negative logarithm of the IC50 (pIC50) on IRAK4 [2] (Table 4) is 9.05; at IRAK4 [2] (Table 5, multiple runs) it was 8.96.
